Assay results as given in ChEMBL document CHEMBL1129091, “Synthesis and biological evaluation of a bicyclo [7.4.1]enediyne” (Bioorg Med Chem Lett, 1996).
≈ marks a conversion by molar mass, not a printed value.

Test system: HCT-116
Assay: In vitro cytotoxicity against human colon carcinoma cells (HCT116)
Format: functional, cell-based

`CC1(C)C2=CC(=O)CC[C@@]1(O)C#C/C=C\C#C[C@H]2O` gave an IC50 of 18 µg/mL (≈ 70.2 µM).
